One data set relates to Male Sprague-Dawley rats. The data set can be described thus: Elevated plus-maze test in rats. The format is in vivo, rat. Particulars: 60 min after treatment, minimal effective dose regarding the time spent in the open arms. An excerpt:
Tests have been performed as described by Pellow and co-workers [J. Neurosci. Methods, 14, 149 (1985)]. A wooden cross, 15 cm wide with 100 cm long arms was used for the experiments. The sides and ends of two opposite arms of the cross were equipped with 40 cm high walls, however, the arms were open to the 15×15 cm central area (closed arms). The two other opposite arms were not encircled by walls (open arms).
Male Sprague-Dawley rats weighing 200-220 g were used for the experiments. The animals were placed in the central area of the equipment 60 min after treatment and the following four parameters have been observed for the 5 min test time: • time spent in the open arms, • time spent in the closed arms, • number of entries into the open arms, • number of entries into the closed arms.
The effect was expressed as percent increase in either the time (measured in sec) spent in the open arms or number of entries into the open arms. MEDs (minimal effective dose) were determined for each compound regarding the time spent in the open arms. Buspirone [8-{4-[4-(2-pyrimidinyl)-1-piperazinyl]butyl}-8-azaspiro[4,5]decane-7,9-dione] was used as the reference substance.

In the next data set the test system is mouse. The data set is described as follows: Inhibition of spontaneous motor activity (sedative effect). Type of data set: in vivo. Here is the method: The effect on spontaneous motor activity was investigated according to Borsy and co-workers [Borsy, J. et al, Arch. Int. Pharmacodyn., 124, 180-190 (1960)] in a ten channel Dews instrument, with 1-1 animal in each channel. Animals were placed into the instrument 60 min after per os treatment with either vehicle or test compound, and interruptions of infrared beams were recorded for 30 min. […] Inhibitory doses (ID50)have been determined by regression analysis. Diazepam was used as the reference substance.

The test system of data set [1] is male Wistar rats. The data set is described as follows: Vogel lick-conflict (drinking conflict) test. The format is in vivo, rat. Particulars: intraperitoneally, 30 min prior to test, number of tolerated shocks. Here is the method: Experiments were performed in a PC operated system (LIIKOSYS, Experimentria, Hungary) consisted of 8 test chambers (20 cm×20 cm×20 cm Plexiglas boxes) each of which was equipped with a water fountain system mounted at appropriate height on the wall of the chamber and metal grid floor for delivering electric shocks. 160-180 g male Wistar rats N=8) were deprived of drinking water 48 h and fasted for 24 h prior to test. Test and reference compounds or vehicle were administered intraperitoneally, 30 min prior to test. All procedures were carried out in a quiet, air-conditioned room between 07:30 and 13:00 h at an ambient temperature of 23±2° C. At the beginning of the test the animals were placed in the test chamber where they had free access to drinking water for a 30 s grace period. After that, electric shocks (600 μA, 0.6 s) were applied through the drinking spout following every 20 licks during the 5 min test period (Vogel et al, 1971). Number of punished licks were recorded and stored by an IBM compatible computer. Means±SEM of numbers of tolerated shocks were calculated in each group, statistical analysis of data was performed by one way ANOVA followed by Duncan's test ([…]). Diazepam [7-chloro-1,3-dihydro-1-methyl-5-phenyl-2H-1,4-benzodiazepine-2-one] was used as the reference substance.

Data set [2] concerns male Wistar rats. The data set can be described thus: Effects on blood pressure, radiotelemetry in conscious rats. Particulars: for Mean blood pressure after treatment with test compound (mmHg), Mean: mean arterial blood pressure for 6 hours after oral treatment; for Results of statistical evaluation: test compound compared to placebo, mean arterial blood pressure for 6 hours after treatment.
Method: (§1) The experiments were performed in conscious, freely moving, male Wistar rats using a radiotelemetry system (Data Sciences International, St. Paul, Minn., USA). Prior to treatments rats were implanted with transmitters (type: TL11M2-C50-PXT) that permitted continues monitoring of arterial blood pressure. Under sterile surgical conditions, catheter of the transmitter was introduced into the abdominal aorta for measurement of arterial blood pressure and the transmitter was sutured to the abdominal wall of animals anaesthetised with pentobarbital-Na (60 mg/kg, i.p.; Nembutal inj. Phylaxia-Sanofi, Budapest). After surgery the animals were treated with an antibiotic (1 ml/kg i.m. Tardomyocel comp. inj. ad us. vet., Bayer A G, Leverkusen, Germany). A 7 day postoperative recovery period was allowed. Radio signals emitted by the transmitters were detected by RLA1000 type receivers placed under each animal's cage. The data were collected, saved and evaluated using the Dataquest IV. software from Data Sciences. The computer was set to sample the parameters for 10 seconds in every second minute.
(§2) The test substances or vehicle (methyl cellulose 0.4% w/v) were administered orally by gavage in a volume of 1 ml/kg at about 10 a.m. The effects of test items were measured for 6 hours. The effect of each compound was compared with that caused by vehicle treatment using two-way analysis of variance for repeated measures with Scheffe's post hoc test.

Data set [3] has as its system male Wistar rats. The note with it: rat, in vivo.
Method: as §1, §2
Setting [4] is: per os, 60 min before test, interruptions of infrared beams recorded for 30 min.

Structures can show the parent of a compound that is named as a salt. Where two headings read alike, the source gives them in different places. Bounds are passed on as bounds.

In the case of `O=c1[nH]ncc(Cl)c1NCCCN(CCOc1cccc2c1OCCO2)Cc1ccccc1` (as salt: hydrochloride) [Example 3, 4-{3-[benzyl-[2-(2,3-dihydrobenzo[1,4]dioxine-5-yloxy)ethyl]-amino]propylamino}-5-chloro-2H-pyridazine-3-one hydrochloride], the melting point (as a rule, the temperature, or range, at which the solid turns liquid) lay within 207 to 209 °C.
The compound `O=c1[nH]nccc1NCCCNCCOc1cccc2c1OCCO2` (as salt: hydrochloride) [Example 9, 4-{3-[2-(2,3-dihydrobenzo[1,4]dioxine-5-yloxy)ethylamino]-propylamino}-2H-pyridazine-3-one] yielded a melting point of 203 to 204 °C.
Still for that read-out and setting: under `CN(CCN1CCN(c2cccc3c2OCCO3)CC1)c1cnn(C)c(=O)c1` (as salt: hydrochloride) [Example 16, 5-(2-(4-(2,3-dihydro-benzo[1,4]dioxine-5-yl)-piperazine-1-yl)-ethyl-methyl-amino)-2-methyl-2H-pyridazine-3-one-hydrochloride] stands 249 to 251 °C.
On to `O=C1CC2(CCCC2)CC(=O)N1CCCCN1CCN(c2ncccn2)CC1` [Buspirone, 8-{4-[4-(2-pyrimidinyl)-1-piperazinyl]butyl}-8-azaspiro[4,5]decane-7,9-dione, reference compound], for which the “MED in mg/kg po.” value in the data set with Male Sprague-Dawley rats worked out at 3.0 mg/kg.
In the case of `CN1C(=O)CN=C(c2ccccc2)c2cc(Cl)ccc21` [Diazepam, 7-chloro-1,3-dihydro-1-methyl-5-phenyl-2H-1,4-benzodiazepine-2-one, reference compound], the “ID50 in mg/kg po.” value in the data set on mouse (setting [4]) worked out at 7.0 mg/kg. Besides, in the data set with male Wistar rats [1], the “MED in mg/kg ip.” value was determined as 5.0 mg/kg.
Consider `CCCN(CCCNc1c(Cl)cn[nH]c1=O)CCOc1cccc2c1OCCO2` [Example 2, 5-chloro-4-(3-{[2-(2,3-dihydrobenzo[1,4]dioxine-5-yloxy)-ethyl]propyl-amino}propylamino)-2H-pyridazine-3-one], for which the melting point fell in the range of 87 to 89 °C. In the data set with male Wistar rats [1], the “MED in mg/kg ip.” value turned out to be 20.0 mg/kg. The “MED in mg/kg po.” value in the data set with Male Sprague-Dawley rats came out at 10.0 mg/kg.
Turning to `O=c1[nH]ncc(Cl)c1NCCCN(CCOc1cccc2c1OCCO2)Cc1ccccc1` [Example 3, 4-{3-[benzyl-[2-(2,3-dihydrobenzo[1,4]dioxine-5-yloxy)ethyl]-amino]propylamino}-5-chloro-2H-pyridazine-3-one hydrochloride], the “MED in mg/kg po.” value in the data set with Male Sprague-Dawley rats is on record as 10.0 mg/kg.
For `O=c1[nH]ncc(Cl)c1NCCCCN1CCN(c2cccc3c2OCCO3)CC1` [Example 4, 5-chloro-4-{4-[4-(2,3-dihydrobenzo[1,4]dioxine-5-yl)-piperazine-1-yl]-butylamino}-2H-piridazine-3-one], the “ID50 in mg/kg po.” value in the data set on mouse (in vivo, po) was found to be 30.0 mg/kg. In addition, the “MED in mg/kg ip.” value in the data set on male Wistar rats [1] amounted to 20.0 mg/kg. Further, the “MED in mg/kg po.” value in the data set with Male Sprague-Dawley rats is 1.0 mg/kg.
For `O=c1[nH]ncc(NCCN2CCN(c3cccc4c3OCCO4)CC2)c1Cl` [Example 5, 4-chloro-5-{2-[4-(2,3-dihydrobenzo[1,4]dioxine-5-yl)-piperazin-1-yl]-ethylamino}-2H-pyridazine-3-one], the melting point is 217 to 219 °C. In the data set on mouse (setting [4]), the “ID50 in mg/kg po.” value stood at 11.0 mg/kg. Moreover, the “MED in mg/kg po.” value in the data set on Male Sprague-Dawley rats was found to be 0.003 mg/kg.
In the case of `Cn1ncc(NCCN2CCN(c3cccc4c3OCCO4)CC2)c(Cl)c1=O.O` [Example 6, 4-chloro-5-{2-[4-(2,3-dihydro-1,4-benzodioxine-5-yl)-piperazine-1-yl]-ethylamino}-2-methyl-2H-piridazine-3-one monohydrate], in the data set with male Wistar rats [2], the “Mean blood pressure after treatment with test compound (mmHg), Mean” value (“Mean blood pressure after treatment” below) was 106.3 mmHg and the “Results of statistical evaluation” value is given as “N.S”. In the data set on male Wistar rats [1], the “MED in mg/kg ip.” value is under 5.0 mg/kg.
In the case of `CN(CCN1CCN(c2cccc3c2OCCO3)CC1)c1cn[nH]c(=O)c1Cl` [Example 7, 4-chloro-5-{2-[4-(2,3-dihydrobenzo[1,4]dioxine-5-yl)-piperazine-1-yl]ethyl}methylamino-2H-pyridazine-3-one], the “Results of statistical evaluation” value with male Wistar rats [3] is on record as “N.S”. Moreover, in the data set on male Wistar rats [3] (po), the “Mean blood pressure after treatment” value is 97.0 mmHg. Besides, the “MED in mg/kg ip.” value in the data set on male Wistar rats [1] was under 10.0 mg/kg.
For `CC(C)(C)n1ncc(Cl)c(NCCN2CCN(c3cccc4c3OCCO4)CC2)c1=O` [Example 8, 2-tert.-butyl-5-chloro-4-{2-[4-(2,3-dihydrobenzo-[1,4]dioxine-5-yl)piperazine-1-yl]ethylamino}-2H-pyridazine-3-one], the melting point is 177 to 178 °C. In the data set with male Wistar rats [2], the “Mean blood pressure after treatment” value turned out to be 95.4 mmHg and the “Results of statistical evaluation” value is “N.S”.
Consider `O=c1[nH]nccc1NCCCNCCOc1cccc2c1OCCO2` [Example 9, 4-{3-[2-(2,3-dihydrobenzo[1,4]dioxine-5-yloxy)ethylamino]-propylamino}-2H-pyridazine-3-one], for which the “ID50 in mg/kg po.” value in the data set on mouse (setting [4]) is recorded as over 30.0 mg/kg. In the data set with Male Sprague-Dawley rats, the “MED in mg/kg po.” value was determined as 0.3 mg/kg.
Compound `O=c1cc(NCCN2CCN(c3cccc4c3OCCO4)CC2)cn[nH]1` [Example 10, 5-{2-[4-(2,3-dihydro-1,4-benzodioxine-5-yl)-piperazine-1-yl]-ethylamino}-2H-pyridazine-3-one] gave a melting point of 244 to 246 °C. The “ID50 in mg/kg po.” value with mouse (setting [4]) was 53.3 mg/kg. Moreover, the “MED in mg/kg ip.” value in the data set with male Wistar rats [1] turned out to be 5.0 mg/kg. In addition, the “MED in mg/kg po.” value in the data set on Male Sprague-Dawley rats turned out to be 0.01 mg/kg.
As for `O=c1cc(NCCN2CCN(c3cc(Cl)cc4c3OCCO4)CC2)cn[nH]1` [Example 11, 5-{2-[4-(7-chloro-2,3-dihydrobenzo[1,4]dioxine-5-yl)-piperazine-1-yl]ethylamino}-2H-pyridazine-3-one], the melting point was 115 to 117 °C. Also, in the data set on male Wistar rats [2], the “Mean blood pressure after treatment” value is recorded as 101.5 mmHg and the “Results of statistical evaluation” value was “N.S”. Moreover, the “MED in mg/kg ip.” value with male Wistar rats [1] came out at 20.0 mg/kg.
`O=c1cc(NCCCN2CCN(c3cccc4c3OCCO4)CC2)cn[nH]1` [Example 12, 5-{3-[4-(2,3-dihydro-1,4-benzodioxine-5-yl)piperazine-1-yl]-propylamino}-2H-pyridazine-3-one] returned a melting point of 158 to 160 °C. In the data set with male Wistar rats [2], the “Mean blood pressure after treatment” value was found to be 89.9 mmHg and the “Results of statistical evaluation” value was “N.S”.
`O=c1cc(NCCNCCOc2cccc3c2OCCO3)cn[nH]1` [Example 13, 5-{2-[2-(2,3-dihydrobenzo[1,4]dioxine-5-yloxy)ethylamino)-ethylamino)-2H-pyridazine-3-one] registered a melting point of 81 to 83 °C.
Same read-out and setting: under `Cn1ncc(NCCN2CCN(c3cccc4c3OCCO4)CC2)cc1=O` [Example 14, 5-{2-[4-(2,3-dihydro1,4-benzodioxine-5-yl)-piperazine-1-yl]-ethylamino}-2-methyl-2H-pyridazine-3-one] stands 188 to 190 °C.
For `CN(CCN1CCN(c2cccc3c2OCCO3)CC1)c1cnn(C)c(=O)c1` [Example 16, 5-(2-(4-(2,3-dihydro-benzo[1,4]dioxine-5-yl)-piperazine-1-yl)-ethyl-methyl-amino)-2-methyl-2H-pyridazine-3-one-hydrochloride], in the data set with male Wistar rats [2], the “Mean blood pressure after treatment” value is recorded as 105.2 mmHg and the “Results of statistical evaluation” value is reported as “N.S”.
In turn, `CN(CCN1CCN(c2cccc3c2OCCO3)CC1)c1cnn(C)c(=O)c1Cl` [Example 17, 4-chloro-5-({2-[4-(2,3-dihydro-benzo[1,4]dioxine-5-yl)-piperazine-1-yl]-ethyl}-methyl-amino)-2-methyl-2H-pyridazine-3-one] registered a melting point of 114 to 116 °C.

(Values after patent US6930110B2, “Substituted alkylaminopyridazinone derivatives, process for the preparation thereof and pharmaceutical composition containing the same” (Egis Gyogyszergyar Rt., priority 2001, dated 2005).)
